{"source": "patent US7351701B2", "about": "“Therapeutic compounds” (Cancer Research Technology Limited, priority 2004, dated 2008)", "key": {"PARP [1]": {"molecular_target": "T1, PARP (Mus musculus, UniProt P11103)", "T1 sequence (P11103 whole entry)": "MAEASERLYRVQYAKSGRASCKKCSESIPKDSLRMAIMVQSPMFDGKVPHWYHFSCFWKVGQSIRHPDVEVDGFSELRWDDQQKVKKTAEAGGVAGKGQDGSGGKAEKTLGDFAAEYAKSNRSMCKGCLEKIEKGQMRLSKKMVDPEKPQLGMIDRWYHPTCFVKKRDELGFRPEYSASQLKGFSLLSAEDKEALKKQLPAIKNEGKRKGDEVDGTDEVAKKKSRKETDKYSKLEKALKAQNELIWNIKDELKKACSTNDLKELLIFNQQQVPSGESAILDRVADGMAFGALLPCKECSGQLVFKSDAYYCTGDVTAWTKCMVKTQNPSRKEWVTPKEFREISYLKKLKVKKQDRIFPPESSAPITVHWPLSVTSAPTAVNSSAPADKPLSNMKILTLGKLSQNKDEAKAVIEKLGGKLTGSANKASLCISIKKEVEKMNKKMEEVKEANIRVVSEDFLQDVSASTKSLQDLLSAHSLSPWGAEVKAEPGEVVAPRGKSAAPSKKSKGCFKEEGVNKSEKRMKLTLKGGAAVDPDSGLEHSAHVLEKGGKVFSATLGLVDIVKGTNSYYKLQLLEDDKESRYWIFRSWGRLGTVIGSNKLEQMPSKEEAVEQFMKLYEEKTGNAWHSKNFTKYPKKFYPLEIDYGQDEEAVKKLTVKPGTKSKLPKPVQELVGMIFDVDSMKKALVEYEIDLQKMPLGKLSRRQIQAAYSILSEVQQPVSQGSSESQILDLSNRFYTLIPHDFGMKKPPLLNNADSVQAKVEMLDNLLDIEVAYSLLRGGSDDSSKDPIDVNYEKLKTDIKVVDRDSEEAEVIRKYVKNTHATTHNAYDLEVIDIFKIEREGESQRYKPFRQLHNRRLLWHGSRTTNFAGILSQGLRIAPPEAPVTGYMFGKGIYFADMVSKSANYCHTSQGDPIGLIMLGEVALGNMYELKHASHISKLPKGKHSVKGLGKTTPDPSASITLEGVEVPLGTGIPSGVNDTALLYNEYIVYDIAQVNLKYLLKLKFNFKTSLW", "assay": "PARP activity assay in digitonin-permeabilised L1210 cells", "format": "cell-based", "parameters": "endogenous in cells; host or cells: L1210 cells, digitonin-permeabilised", "conditions": "L1210 cells permeabilised prior to adding the inhibitor", "experimental": "(§1) Exponentially growing cells were exposed to 1% DMSO in culture medium (control) or a compound of formula I or III in 1% DMSO at the concentrations indicated in FIG. 4 to cells permeabilised with digitonin, or intact cells for 20 minutes prior to washing and digitonin-permeabilization. PARP activity was measured by incorporation of a [32P] labelled NAD+ substrate into TCA precipitateble polymers after stimulation by the addition of a blunt-ended oligonucleotide and compared with non-oligonucleotide-stimulated cells. PARP activity in tumour homogenates (1 in 40 in isotonic buffer) from formula III-treated mice was measured in the same way. PARP activity in pbls and tumour homogenates from formula I-phospate treated mice was measured by immunological detection of polymer using the 10H antibody. Briefly, tumour homogenates diluted to up to 1:1000 in isotonic buffer were incubated with 350 μM NAD for 6 min and blotted onto nitrocellulose membrane. The poly(ADP-ribose) (PAR) polymer formation was quantified by chemiluminescence detection using a Fuji LAS3000 UV Illuminator by reference to serial dilutions of a PAR standard, following incubation with 10H antibody to PAR and a secondary anti-mouse antibody."}, "PARP [2]": {"molecular_target": "T2, PARP (Homo sapiens, UniProt P09874)", "T2 construct": "PARP activity in tumour homogenates (1 in 40 in isotonic buffer) from formula III-treated mice; from tissue; host or cells: homogenates of SW620 xenograft tumours grown in mice", "T2 sequence (P09874 whole entry)": "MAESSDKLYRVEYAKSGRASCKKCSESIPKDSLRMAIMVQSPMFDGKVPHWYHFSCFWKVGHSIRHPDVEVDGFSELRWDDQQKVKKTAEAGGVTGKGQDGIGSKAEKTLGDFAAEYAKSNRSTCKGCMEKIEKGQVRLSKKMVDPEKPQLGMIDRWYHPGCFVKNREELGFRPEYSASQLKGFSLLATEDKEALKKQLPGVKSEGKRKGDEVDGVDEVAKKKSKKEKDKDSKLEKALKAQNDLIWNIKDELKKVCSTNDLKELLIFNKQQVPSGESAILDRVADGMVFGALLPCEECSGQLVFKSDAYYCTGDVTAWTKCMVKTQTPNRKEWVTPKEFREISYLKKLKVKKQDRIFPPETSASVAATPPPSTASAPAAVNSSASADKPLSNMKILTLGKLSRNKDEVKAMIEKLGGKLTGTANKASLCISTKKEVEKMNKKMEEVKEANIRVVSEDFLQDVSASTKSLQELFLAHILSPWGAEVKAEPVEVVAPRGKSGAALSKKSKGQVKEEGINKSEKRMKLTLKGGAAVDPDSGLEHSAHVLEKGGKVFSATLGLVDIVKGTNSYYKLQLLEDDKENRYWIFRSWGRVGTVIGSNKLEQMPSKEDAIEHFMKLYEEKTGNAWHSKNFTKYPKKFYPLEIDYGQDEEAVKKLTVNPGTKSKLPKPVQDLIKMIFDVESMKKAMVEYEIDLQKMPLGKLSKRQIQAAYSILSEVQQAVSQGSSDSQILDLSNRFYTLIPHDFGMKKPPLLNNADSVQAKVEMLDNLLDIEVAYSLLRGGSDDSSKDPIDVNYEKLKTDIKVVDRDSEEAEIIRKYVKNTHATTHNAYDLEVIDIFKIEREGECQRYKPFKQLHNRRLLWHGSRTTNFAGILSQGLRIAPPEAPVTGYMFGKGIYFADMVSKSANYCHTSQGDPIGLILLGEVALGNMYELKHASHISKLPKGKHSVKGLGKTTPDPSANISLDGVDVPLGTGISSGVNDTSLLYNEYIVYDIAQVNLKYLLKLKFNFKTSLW", "assay": "PARP activity in SW620 xenograft tumour homogenates from formula III-treated mice ([32P] NAD+ incorporation)", "format": "in vivo", "conditions": "10 mg/kg intraperitoneal", "experimental": "FIG. 7 is a bar chart showing the pharmacokinetics and pharmacodynanics with formula III in mice bearing SW620 xenografts;\nas §1, with “antibody. […]” for “antibody. Briefly, tumour homogenates diluted to up to 1:1000 in isotonic buffer were incubated with 350 μM NAD for 6 min and blotted onto nitrocellulose membrane.”, “antibody. The results were standardised by reference to the measured protein content of the homogenate.” for “antibody.”"}, "IrS ISF cell line": {"test_system": "IrS ISF cell line", "assay": "cells", "format": "cell-based", "conditions": "Cricetulus griseus, 24 h, read-out: LC50 (the concentration of the active component that kills 50% of the cells)", "excerpt": "The AA8, irs1SF and CXR3 cell lines were provided by Larry Thompson.\nToxicity Assay—Clonogenic Survival Assay"}, "[3]": {"assay": "Plasma and tumour concentrations in mice bearing SW620 xenografts after intraperitoneal administration", "format": "in vivo"}, "SW620 xenografts": {"test_system": "SW620 xenografts", "assay": "Tumour growth (median relative tumour volume) in mice bearing SW620 xenografts", "format": "in vivo", "excerpt": "FIG. 8 is a graph showing the tumour growth (median relative tumour volume) in mice bearing SW620 xenografts following treatment with formula III in combination with temozolomide (TMZ) and with TMZ alone;\nFIG. 9 is a graph showing the tumour growth (median relative tumour volume) of mice bearing SW620 xenografts following treatment with formula I-phosphate in combination with temozolomide (TMZ) and with formula I-phosphate and TMZ alone;\nHowever, shortly after this time the tumour size begins to increase."}, "VC8 cell line [4]": {"test_system": "VC8 cell line", "assay": "Clonogenic survival assay, VC8 cell line (lacks BRCA2)", "procedure": "(§3) All cell lines in this study were grown in Dulbecco's modified Eagle's Medium (DMEM) with 10% Foetalbovine serum and penicillin (100 U/ml) and steptomycin sulphate (100 μg/mL) at 37° C. under an atmosphere containing 5% CO2.\n(§4) The cells were harvested by trypsinisation, counted and seeded at varying densities in 10 cm dishes in fresh medium in the absence of drug for colony formation.\n(§5) 7-10 days later the dishes were fixed with methanol:acetic acid 3:1 and stained with 0.4% crystal violet.\n(§6) Colonies were counted and the survival relative to 1% DMSO control treated cells calculated."}, "PARP [5]": {"molecular_target": "T1, PARP", "assay": "PARP activity assay in intact L1210 cells (20 minutes exposure before permeabilisation)", "format": "cell-based", "parameters": "endogenous in cells; host or cells: L1210 cells, digitonin-permeabilised", "conditions": "exposed 20 minutes prior to permeabilisation", "experimental": "as §1"}, "VC8 cell line [6]": {"test_system": "VC8 cell line", "conditions": "hamster, 24 h", "procedure": "as §3, §4, §5, §6"}, "PARP [7]": {"molecular_target": "T2, PARP", "assay": "PARP activity in SW620 xenograft tumour homogenates after formula I-phosphate (10H antibody detection)", "format": "in vivo, mice", "experimental": "(§2) FIG. 6 is a pair of bar charts showing the blood and tumour pharmacokinetics and pharmacodynamics with formula I-phosphate at 1 mg/kg (upper) and 10 mg/kg (lower) in mice bearing SW620 xenografts;\nas §1, with “Briefly, tumour homogenates diluted to up to 1:1000 in isotonic buffer were incubated with 350 μM NAD for 6 min and blotted onto nitrocellulose membrane.” left out"}, "[8]": {"assay": "Solubility of the phosphate salt", "format": "physicochemical", "conditions": "phosphate salt vs parent compound"}, "PARP [9]": {"molecular_target": "T1, PARP", "assay": "PARP activity in mouse peripheral blood lymphocytes after formula I-phosphate (10H antibody detection)", "format": "in vivo", "parameters": "PARP activity in pbls and tumour homogenates from formula I-phospate treated mice; from tissue; host or cells: peripheral blood lymphocytes of treated mice", "conditions": "10 mg/kg intraperitoneal, up to 24 hr", "experimental": "as §2\nas §1, with “Briefly, tumour homogenates diluted to up to 1:1000 in isotonic buffer were incubated with 350 μM NAD for 6 min and blotted onto nitrocellulose membrane.” left out"}, "[10]": {"conditions": "10 mg/kg intraperitoneal, SW620 xenograft"}}, "note": "Like-named read-outs stand apart in the source and are kept apart here."}
{"smiles": "CN(C)Cc1ccc(-c2nc3cccc4c3n2CCNC4=O)cc1", "note": "[Formula III]", "values": [{"measurement": "PARP inhibitory activity, formula I compared with formula III", "setting": "PARP [1]", "result": "no difference"}, {"measurement": "PARP activity in the tumour", "setting": "PARP [2]", "result": "inhibits PARP activity in the tumour"}, {"measurement": "CC50", "setting": "IrS ISF cell line", "result": 100, "unit": "nM"}, {"measurement": "distribution to tumour", "setting": "[3]; [10]", "result": "distributes well to the tumour"}, {"measurement": "retention in tumour relative to plasma with time", "setting": "[3]; [10]", "result": "preferentially retained with time"}, {"measurement": "time over which tumour shrinks to an undetectable size", "setting": "SW620 xenografts; formula III 5 mg/kg daily×5 with temozolomide 68 mg/kg daily×5", "result": "around 15 days"}, {"measurement": "further time tumour size remains undetectable", "setting": "SW620 xenografts; formula III 5 mg/kg daily×5 with temozolomide 68 mg/kg daily×5, then begins to increase", "result": 50, "unit": "days"}, {"measurement": "tumour outcome at autopsy", "setting": "SW620 xenografts; formula III 15 mg/kg daily×5 with temozolomide, end of the experiment", "result": "complete tumour regression"}, {"measurement": "further time tumour size remains undetectable", "setting": "SW620 xenografts; formula III 15 mg/kg daily×5 with temozolomide, until the end of the experiment", "result": 80, "unit": "days"}, {"measurement": "LC90 (concentration of active component that kills 90% of the cells)", "setting": "VC8 cell line [4]", "result": 1200, "unit": "nM"}, {"measurement": "CC50", "setting": "VC8 cell line [4]; read-out: LC50", "result": 43, "unit": "nM"}]}
{"smiles": "CNCc1ccc(-c2[nH]c3cc(F)cc4c3c2CCNC4=O)cc1", "note": "[Formula I]", "values": [{"measurement": "PARP inhibitory activity, formula I compared with formula III", "setting": "PARP [1]", "result": "no difference"}, {"measurement": "PARP inhibitory activity, formula I compared with formula III", "setting": "PARP [5]", "result": "more potent in intact cells"}, {"measurement": "CC50", "setting": "VC8 cell line [6]", "result": 12, "unit": "nM"}, {"measurement": "LC90 (concentration of active component that kills 90% of the cells)", "setting": "VC8 cell line [4]", "result": 27, "unit": "nM"}]}
{"smiles": "CNCc1ccc(-c2[nH]c3cc(F)cc4c3c2CCNC4=O)cc1.O=P(O)(O)O", "note": "[formula I-phosphate]", "values": [{"measurement": "levels of formula I in plasma and tumour", "setting": "[3]; 1 mg/kg intraperitoneal, compared with 10 mg/kg", "result": "lower levels"}, {"measurement": "plasma concentration of parent compound formula I", "setting": "[3]; 10 mg/kg intraperitoneal, 24 hr after administration", "result": "none could be detected"}, {"measurement": "tumour concentration of parent compound formula I", "setting": "[3]; 10 mg/kg intraperitoneal, 24 hr after administration, SW620 xenograft", "result": "significant levels were detectable"}, {"measurement": "plasma concentration of parent compound formula I", "setting": "[3]; 10 mg/kg intraperitoneal, thirty minutes after administration", "result": "highlevels"}, {"measurement": "tumour concentration of parent compound formula I", "setting": "[3]; 10 mg/kg intraperitoneal, thirty minutes after administration, SW620 xenograft", "result": "highlevels"}, {"measurement": "effect on PARP activity", "setting": "PARP [7]; 1 mg/kg intraperitoneal, compared with 10 mg/kg, pbls and tumour", "result": "less pronounced effect"}, {"measurement": "PARP activity in tumour", "setting": "PARP [7]; 10 mg/kg intraperitoneal, up to 24 hr, SW620 xenograft", "result": "< 50", "unit": "% control"}, {"measurement": "solubility relative to formula I", "setting": "[8]", "result": "increases the solubility"}, {"measurement": "PARP activity in pbls", "setting": "PARP [9]", "result": "< 50", "unit": "% control"}]}
